Assay results taken from publication PMC11345841, “Exploring 2-Sulfonylpyrimidine Warheads as Acrylamide Surrogates for Targeted Covalent Inhibition: A BTK Story” (Journal of Medicinal Chemistry, 2024).
Like-named read-outs stand apart in the source and are kept apart here.

What was measured:
Test in all cases: KINOMEscan ScanTK
Format in all cases: binding
DDR2 = molecular target: T1, DDR2 (Homo sapiens, UniProt Q16832)
T1 construct: purchased Eurofins DiscoverX KINOMEscan (scanTK)
T1 sequence (Q16832 22-855): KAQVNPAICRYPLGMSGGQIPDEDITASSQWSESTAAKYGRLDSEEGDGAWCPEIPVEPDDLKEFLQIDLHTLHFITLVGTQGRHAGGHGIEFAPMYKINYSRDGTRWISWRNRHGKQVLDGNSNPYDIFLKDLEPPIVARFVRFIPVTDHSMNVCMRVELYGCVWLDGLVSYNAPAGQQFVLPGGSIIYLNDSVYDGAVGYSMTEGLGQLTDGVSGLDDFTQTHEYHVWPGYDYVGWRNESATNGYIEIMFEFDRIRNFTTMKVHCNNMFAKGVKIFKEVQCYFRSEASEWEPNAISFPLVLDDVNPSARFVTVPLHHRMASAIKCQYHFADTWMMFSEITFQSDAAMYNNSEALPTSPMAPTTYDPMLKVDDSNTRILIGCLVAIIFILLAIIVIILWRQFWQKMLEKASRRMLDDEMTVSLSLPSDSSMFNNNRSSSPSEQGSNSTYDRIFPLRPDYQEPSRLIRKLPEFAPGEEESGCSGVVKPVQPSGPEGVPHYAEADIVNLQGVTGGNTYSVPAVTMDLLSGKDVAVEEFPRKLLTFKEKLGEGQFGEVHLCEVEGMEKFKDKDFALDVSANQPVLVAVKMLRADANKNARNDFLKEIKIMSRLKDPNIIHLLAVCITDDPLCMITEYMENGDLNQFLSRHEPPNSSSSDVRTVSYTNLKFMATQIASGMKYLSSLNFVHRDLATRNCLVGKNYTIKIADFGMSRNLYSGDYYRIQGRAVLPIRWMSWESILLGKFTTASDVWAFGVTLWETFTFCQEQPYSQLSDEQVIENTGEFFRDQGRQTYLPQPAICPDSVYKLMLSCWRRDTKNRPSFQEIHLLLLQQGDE

EGFR(E746-A750del) = molecular target: T2, EGFR(E746-A750del) (Homo sapiens, UniProt P00533, DEL746-750)
T2 construct: purchased Eurofins DiscoverX KINOMEscan (scanTK)

FLT1 = molecular target: T3, FLT1 (Homo sapiens, UniProt P17948)
T3 construct: purchased Eurofins DiscoverX KINOMEscan (scanTK)

FLT3(K663Q) = molecular target: T4, FLT3(K663Q) (Homo sapiens, UniProt P36888, K663Q)
T4 construct: purchased Eurofins DiscoverX KINOMEscan (scanTK)
T4 sequence (P36888 27-993 K663Q): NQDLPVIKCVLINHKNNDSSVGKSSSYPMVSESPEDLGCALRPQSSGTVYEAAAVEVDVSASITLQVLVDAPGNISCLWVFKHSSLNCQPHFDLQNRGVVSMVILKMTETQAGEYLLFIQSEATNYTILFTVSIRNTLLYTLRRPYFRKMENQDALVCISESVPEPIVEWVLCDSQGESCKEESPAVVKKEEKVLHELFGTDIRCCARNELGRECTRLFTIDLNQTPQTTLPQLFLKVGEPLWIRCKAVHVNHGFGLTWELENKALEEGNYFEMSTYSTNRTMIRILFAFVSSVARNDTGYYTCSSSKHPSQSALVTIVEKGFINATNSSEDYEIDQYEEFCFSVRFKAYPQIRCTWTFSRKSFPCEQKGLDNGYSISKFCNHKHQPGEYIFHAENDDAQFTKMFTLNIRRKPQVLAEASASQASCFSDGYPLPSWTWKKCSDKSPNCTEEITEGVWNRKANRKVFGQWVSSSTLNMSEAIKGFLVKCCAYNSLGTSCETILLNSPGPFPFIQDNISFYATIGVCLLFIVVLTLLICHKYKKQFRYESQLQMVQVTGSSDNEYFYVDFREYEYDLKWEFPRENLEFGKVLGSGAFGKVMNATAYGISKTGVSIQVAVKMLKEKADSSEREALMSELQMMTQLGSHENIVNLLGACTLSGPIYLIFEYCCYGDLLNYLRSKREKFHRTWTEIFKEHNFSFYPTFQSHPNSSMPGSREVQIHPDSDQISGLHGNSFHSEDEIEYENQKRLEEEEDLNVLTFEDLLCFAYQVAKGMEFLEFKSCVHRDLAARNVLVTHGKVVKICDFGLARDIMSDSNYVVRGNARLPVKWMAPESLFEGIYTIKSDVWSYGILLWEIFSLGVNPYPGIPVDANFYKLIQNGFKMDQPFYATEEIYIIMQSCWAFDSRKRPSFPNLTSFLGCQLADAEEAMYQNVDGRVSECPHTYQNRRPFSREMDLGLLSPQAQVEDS

HCK = molecular target: T5, HCK (Homo sapiens, UniProt P08631)
T5 construct: purchased Eurofins DiscoverX KINOMEscan (scanTK)

KIT(A829P) = molecular target: T6, KIT(A829P) (Homo sapiens, UniProt P10721, A829P)
T6 construct: purchased Eurofins DiscoverX KINOMEscan (scanTK)

MET(M1250T) = molecular target: T7, MET(M1250T) (Homo sapiens, UniProt P08581, M1250T)
T7 construct: purchased Eurofins DiscoverX KINOMEscan (scanTK)

TRKA = molecular target: T8, TRKA (Homo sapiens, UniProt P04629)
T8 construct: purchased Eurofins DiscoverX KINOMEscan (scanTK)

[1] = @1000nM, DDR2, read-out: %Control
[2] = DDR2, read-out: %Control @1000nM
[3] = @1000nM, TRKA, read-out: %Control
[4] = TRKA, read-out: %Control @1000nM

T6 sequence (P10721 26-976 A829P): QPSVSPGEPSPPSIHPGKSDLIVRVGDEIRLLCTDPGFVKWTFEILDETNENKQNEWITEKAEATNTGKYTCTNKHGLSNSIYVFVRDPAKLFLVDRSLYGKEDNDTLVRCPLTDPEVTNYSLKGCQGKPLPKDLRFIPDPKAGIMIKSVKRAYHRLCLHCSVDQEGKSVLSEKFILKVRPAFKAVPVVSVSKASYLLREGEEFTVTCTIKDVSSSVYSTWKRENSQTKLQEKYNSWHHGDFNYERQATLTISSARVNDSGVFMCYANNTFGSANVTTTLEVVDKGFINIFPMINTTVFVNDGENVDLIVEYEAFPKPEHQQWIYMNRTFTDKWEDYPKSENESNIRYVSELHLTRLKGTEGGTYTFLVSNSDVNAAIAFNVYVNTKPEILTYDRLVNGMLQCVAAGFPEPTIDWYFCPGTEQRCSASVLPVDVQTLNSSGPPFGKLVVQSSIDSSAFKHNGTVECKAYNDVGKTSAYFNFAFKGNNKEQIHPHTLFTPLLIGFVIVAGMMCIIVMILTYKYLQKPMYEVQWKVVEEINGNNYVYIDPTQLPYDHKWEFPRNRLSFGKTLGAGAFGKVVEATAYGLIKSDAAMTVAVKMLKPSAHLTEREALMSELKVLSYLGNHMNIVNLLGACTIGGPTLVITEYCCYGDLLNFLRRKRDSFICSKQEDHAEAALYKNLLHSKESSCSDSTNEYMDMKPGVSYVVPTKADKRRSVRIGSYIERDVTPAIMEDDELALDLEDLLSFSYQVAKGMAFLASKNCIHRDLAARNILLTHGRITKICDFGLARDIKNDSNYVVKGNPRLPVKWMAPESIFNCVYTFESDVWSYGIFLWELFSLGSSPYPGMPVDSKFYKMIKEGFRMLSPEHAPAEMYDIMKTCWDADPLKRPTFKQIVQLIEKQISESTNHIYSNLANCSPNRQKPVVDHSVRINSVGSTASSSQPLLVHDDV
T3 sequence (P17948 27-1338): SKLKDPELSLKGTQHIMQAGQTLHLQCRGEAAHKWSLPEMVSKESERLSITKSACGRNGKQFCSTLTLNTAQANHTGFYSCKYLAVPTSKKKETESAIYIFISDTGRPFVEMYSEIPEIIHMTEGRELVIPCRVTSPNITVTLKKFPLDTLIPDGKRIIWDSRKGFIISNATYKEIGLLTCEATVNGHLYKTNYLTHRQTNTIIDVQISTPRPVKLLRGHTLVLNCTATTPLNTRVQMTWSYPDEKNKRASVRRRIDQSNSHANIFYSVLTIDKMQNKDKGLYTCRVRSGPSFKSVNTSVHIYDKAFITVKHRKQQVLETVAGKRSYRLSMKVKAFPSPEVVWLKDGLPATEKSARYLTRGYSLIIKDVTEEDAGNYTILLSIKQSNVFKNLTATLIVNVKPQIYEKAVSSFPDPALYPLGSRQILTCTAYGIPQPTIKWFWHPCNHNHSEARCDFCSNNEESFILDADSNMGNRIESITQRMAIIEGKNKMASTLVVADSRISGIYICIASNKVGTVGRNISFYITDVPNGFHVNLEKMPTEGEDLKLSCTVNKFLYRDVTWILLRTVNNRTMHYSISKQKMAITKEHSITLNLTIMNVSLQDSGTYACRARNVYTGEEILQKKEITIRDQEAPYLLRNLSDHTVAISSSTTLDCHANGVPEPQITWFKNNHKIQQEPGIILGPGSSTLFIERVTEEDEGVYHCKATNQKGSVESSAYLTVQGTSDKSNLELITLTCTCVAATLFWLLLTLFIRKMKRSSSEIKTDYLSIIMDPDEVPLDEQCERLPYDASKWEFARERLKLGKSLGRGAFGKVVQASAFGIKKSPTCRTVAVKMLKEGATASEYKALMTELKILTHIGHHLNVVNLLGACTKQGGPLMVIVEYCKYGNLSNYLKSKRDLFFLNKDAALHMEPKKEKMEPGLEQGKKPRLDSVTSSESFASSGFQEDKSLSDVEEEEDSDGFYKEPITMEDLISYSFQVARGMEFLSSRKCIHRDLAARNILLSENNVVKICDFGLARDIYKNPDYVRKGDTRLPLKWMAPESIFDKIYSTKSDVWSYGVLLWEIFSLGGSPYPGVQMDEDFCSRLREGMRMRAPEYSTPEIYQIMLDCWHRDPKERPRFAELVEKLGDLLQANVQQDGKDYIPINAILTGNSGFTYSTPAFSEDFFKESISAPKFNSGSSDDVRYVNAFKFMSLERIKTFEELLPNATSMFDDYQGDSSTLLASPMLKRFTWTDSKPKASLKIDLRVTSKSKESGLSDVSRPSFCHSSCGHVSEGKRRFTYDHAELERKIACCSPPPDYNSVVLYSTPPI
T7 sequence (P08581 25-1390 M1250T): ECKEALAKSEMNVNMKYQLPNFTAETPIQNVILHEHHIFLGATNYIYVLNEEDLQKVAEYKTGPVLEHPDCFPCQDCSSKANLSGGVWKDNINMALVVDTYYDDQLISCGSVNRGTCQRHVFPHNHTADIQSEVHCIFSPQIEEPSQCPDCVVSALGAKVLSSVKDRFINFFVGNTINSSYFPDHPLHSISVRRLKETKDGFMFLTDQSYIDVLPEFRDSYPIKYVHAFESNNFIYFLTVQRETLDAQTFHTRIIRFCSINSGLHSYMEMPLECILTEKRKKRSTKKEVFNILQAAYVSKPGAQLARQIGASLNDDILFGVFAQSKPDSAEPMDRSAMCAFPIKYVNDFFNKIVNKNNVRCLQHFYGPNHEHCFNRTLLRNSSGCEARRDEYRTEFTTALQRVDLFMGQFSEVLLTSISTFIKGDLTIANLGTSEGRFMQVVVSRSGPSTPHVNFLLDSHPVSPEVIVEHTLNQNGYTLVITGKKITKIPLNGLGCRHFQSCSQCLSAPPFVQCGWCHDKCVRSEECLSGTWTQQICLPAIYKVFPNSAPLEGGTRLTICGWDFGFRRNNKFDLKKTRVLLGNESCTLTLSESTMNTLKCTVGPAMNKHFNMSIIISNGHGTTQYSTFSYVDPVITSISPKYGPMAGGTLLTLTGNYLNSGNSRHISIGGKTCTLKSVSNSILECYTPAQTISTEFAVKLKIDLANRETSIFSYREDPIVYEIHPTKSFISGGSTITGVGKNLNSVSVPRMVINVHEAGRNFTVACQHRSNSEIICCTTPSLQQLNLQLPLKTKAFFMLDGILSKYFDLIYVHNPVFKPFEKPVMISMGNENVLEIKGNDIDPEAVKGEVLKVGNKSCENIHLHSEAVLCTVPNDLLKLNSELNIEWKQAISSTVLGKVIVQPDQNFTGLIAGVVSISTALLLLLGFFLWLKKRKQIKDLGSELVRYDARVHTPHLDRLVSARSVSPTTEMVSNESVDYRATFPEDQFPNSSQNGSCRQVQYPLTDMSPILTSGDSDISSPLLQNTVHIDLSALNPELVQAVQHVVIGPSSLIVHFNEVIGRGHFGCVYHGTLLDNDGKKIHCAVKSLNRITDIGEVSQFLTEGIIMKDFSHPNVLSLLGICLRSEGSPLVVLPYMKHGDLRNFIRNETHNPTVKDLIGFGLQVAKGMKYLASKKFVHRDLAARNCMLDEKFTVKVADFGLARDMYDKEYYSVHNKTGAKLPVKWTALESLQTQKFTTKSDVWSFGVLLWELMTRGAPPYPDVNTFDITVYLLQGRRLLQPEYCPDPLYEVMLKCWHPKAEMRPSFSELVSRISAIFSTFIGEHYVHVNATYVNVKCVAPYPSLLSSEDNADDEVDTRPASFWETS
T5 sequence (P08631 whole entry): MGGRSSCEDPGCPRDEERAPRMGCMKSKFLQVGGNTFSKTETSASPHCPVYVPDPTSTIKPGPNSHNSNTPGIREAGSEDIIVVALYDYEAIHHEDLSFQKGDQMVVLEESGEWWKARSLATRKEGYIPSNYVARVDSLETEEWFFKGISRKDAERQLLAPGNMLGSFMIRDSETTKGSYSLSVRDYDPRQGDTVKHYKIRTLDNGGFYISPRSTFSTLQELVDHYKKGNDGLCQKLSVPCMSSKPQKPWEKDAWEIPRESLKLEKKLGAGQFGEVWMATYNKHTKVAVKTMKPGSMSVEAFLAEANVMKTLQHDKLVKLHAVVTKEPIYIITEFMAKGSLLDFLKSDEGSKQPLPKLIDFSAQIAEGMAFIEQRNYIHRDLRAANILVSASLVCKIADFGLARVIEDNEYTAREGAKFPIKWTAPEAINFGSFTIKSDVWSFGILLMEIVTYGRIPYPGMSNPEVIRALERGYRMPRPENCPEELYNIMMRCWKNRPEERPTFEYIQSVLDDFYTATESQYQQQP
T8 sequence (P04629 33-796): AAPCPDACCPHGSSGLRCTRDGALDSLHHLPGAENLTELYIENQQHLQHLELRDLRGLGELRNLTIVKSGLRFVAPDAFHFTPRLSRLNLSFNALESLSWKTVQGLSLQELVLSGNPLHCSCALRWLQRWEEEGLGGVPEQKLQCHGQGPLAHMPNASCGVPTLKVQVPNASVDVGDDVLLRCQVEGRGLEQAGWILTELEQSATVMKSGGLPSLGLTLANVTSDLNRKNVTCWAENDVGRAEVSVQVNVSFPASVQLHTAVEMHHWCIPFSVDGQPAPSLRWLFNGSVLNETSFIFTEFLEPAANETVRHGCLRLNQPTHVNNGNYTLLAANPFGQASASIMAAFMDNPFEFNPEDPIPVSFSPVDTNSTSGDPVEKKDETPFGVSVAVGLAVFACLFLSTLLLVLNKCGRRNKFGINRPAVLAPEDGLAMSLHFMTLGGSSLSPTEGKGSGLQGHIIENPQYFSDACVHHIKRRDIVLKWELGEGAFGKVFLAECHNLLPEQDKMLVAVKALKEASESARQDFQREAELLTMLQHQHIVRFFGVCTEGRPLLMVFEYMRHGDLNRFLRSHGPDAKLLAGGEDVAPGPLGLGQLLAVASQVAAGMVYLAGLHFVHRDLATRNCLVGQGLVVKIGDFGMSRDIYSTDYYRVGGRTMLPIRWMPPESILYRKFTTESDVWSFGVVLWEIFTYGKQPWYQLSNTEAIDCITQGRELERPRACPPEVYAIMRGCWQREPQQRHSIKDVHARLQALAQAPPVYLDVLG

SMILES	difference in %Control from reference compound Ib at 1 µM (DDR2; @1000nM, DDR2)	remaining binding at 1 µM (DDR2; [1])	remaining binding at 1 µM (DDR2; [2])	difference in %Control from reference compound Ib at 1 µM (EGFR(E746-A750del); @1000nM)	remaining binding at 1 µM (EGFR(E746-A750del); @1000nM, read-out: %Control)	remaining binding at 1 µM (EGFR(E746-A750del); read-out: %Control @1000nM)	difference in %Control from compound Ib at 1 µM (FLT1; @1000nM)	remaining binding at 1 µM (FLT1; @1000nM, read-out: %Control)	remaining binding at 1 µM (FLT1; read-out: %Control @1000nM)	difference in %Control from compound Ib at 1 µM (FLT3(K663Q); @1000nM)	remaining binding at 1 µM (FLT3(K663Q); @1000nM, read-out: %Control)	remaining binding at 1 µM (FLT3(K663Q); read-out: %Control @1000nM)	difference in %Control from compound Ib at 1 µM (HCK; @1000nM)	remaining binding at 1 µM (HCK; @1000nM, read-out: %Control)	remaining binding at 1 µM (HCK; read-out: %Control @1000nM)	remaining binding at 1 µM (KIT(A829P); @1000nM, read-out: %Control)	remaining binding at 1 µM (KIT(A829P); read-out: %Control @1000nM)	remaining binding at 1 µM (MET(M1250T); @1000nM, read-out: %Control)	remaining binding at 1 µM (MET(M1250T); read-out: %Control @1000nM)	difference in % of control versus compound Ib at 1 µM (TRKA; @1000nM, TRKA)	also measured
Cc1cnc(S(C)(=O)=O)nc1N1CCCC(n2nc(-c3ccc(Oc4ccccc4)cc3)c3c(N)ncnc32)C1 (centres unmarked) [Compound 8a, 1-(1-(5-Methyl-2-(methylsulfonyl)pyrimidin-4-yl)piperidin-3-yl)-3-(4-phenoxyphenyl)-1H-pyrazolo[3,4-d]pyrimidin-4-amine]	-5%	92%	92%	88%	99%	99%	21%	93%	93%	14%	58%	58%	1.3%	6.5%	6.5%	84%	84%	88%	88%	12%	remaining binding at 1 µM (TRKA; [3]): 97%; remaining binding at 1 µM (TRKA; [4]): 97%
C=CC(=O)N1CCC[C@@H](n2nc(-c3ccc(Oc4ccccc4)cc3)c3c(N)ncnc32)C1 [Compound 1g, Ibrutinib, reference compound]	–	–	–	–	–	–	–	72%	72%	–	44%	44%	–	5.2%	5.2%	–	–	96%	96%	–	remaining binding at 1 µM (DDR2; read-out: %Control): 97%; remaining binding at 1 µM (DDR2; read-out: %Control @1000nM): 97%; remaining binding at 1 µM (TRKA; read-out: %Control): 85%; remaining binding at 1 µM (TRKA; read-out: %Control @1000nM): 85%
COC(=O)c1cnc(S(C)(=O)=O)nc1N1CCCC(n2nc(-c3ccc(Oc4ccccc4)cc3)c3c(N)ncnc32)C1 (centres unmarked) [Compound 8b, Methyl 4-(3-(4-Amino-3-(4-phenoxyphenyl)-1H-pyrazolo[3,4-d]pyrimidin-1-yl)piperidin-1-yl)-2-(methylsulfonyl)pyrimidine-5-carboxylate]	-6%	91%	91%	73%	84%	84%	26%	98%	98%	29%	73%	73%	10.8%	16%	16%	70%	70%	96%	96%	4%	remaining binding at 1 µM (TRKA; [3]): 89%; remaining binding at 1 µM (TRKA; [4]): 89%
